Experimental data as given in EP1310250A1, “Use of the compound 2-methoxyphenyl-1-methyl-5P-methylbenzoyl-pyrrol-2-acetamido acetate for the production of an antiinflammatory drug with prevention of gastric hypersecretion and renal impairment” (MEDOSAN Ricerca S.r.l., priority 1997, dated 1999).
Several values for one entry are separate records, joined by “and”; a condition that tells them apart may be missing. Equal values may be shown once. Marks after values point to notes of the source that are not given here.

Tests used:
rat gastric mucosa = conditions: male, Wistar, in vivo, po, 4 days
Protocol: The animals entered in the trial, randomized and divided into groups of 6 rats each, were fasted for 16 h prior to treatment, with access to water ad libitum. They were re-fed 1 h after drug administration. The compound 2-methoxyphenyl-1-methyl-5p-methylbenzoyl-pyrrol-2-acetamido acetate and the other reference NSAIDs, suspended in 1% carboxymethylcellulose (CMC) solution, were orally administered by gastric gavage in a volume of 6ml/kg for four consecutive days. Controls received the vehicle in the same way as the treated animals. 4 h after the last administration the animals were killed by ether overdose; the stomachs were removed, rinsed with 10 ml of saline and immersed in 1% formalin. They were later opened along the greater curvature and the mucosa examined for lesions.
The seriousness of the lesion was quantified according to a scale graduated from 1 to 3 according to the size of the lesions: 1= ulcer < 1mm; 2= ulcer 1-2mm; 3= ulcer > 2mm. The total sum was divided by 10 to obtain the "erosion index". The gastric lesions were evaluated by two independent investigators under blind conditions according to Main & Whittle method (BJ Pharmac 1975:53; p. 217-224).
Since the average daily dose in man (for the anti-inflammatory activity) is 600 mg, the comparative efficacious dose in the rat is in the ratio of 12:1. More precisely, comparative evaluation with the other NSAID compounds was calculated as follows: 600 mg/die: 50 mg/kg = daily dose of reference NSAID in man: X [formula] where X represents the daily dose of the reference NSAID in rat. This criterion keeps into account the "real" activity ratio in man. In this work the "ratio to rat dosage" has also been included which keeps into account ratios homogeneous to the same animal species. To evaluate the "ratio to rat dosage" the ID50 has been determined using the carrageenin-induced oedema as inflammatory test.
In order to exacerbate possible side effects on the stomach the dosage of amtolmetin guacyl was quadruplicated.

[1] = system: carrageenin-induced paw oedema; assay: Determination of ID50, carrageenin-induced paw oedema; assay type: in vivo, rat; conditions: five times the oral ID50 for oedema inhibition, 2 h after carrageenin
Protocol: ID50, relative to the products under examination (considered in table 1), has been evaluated using the anti-inflammatory response to carrageenin-induced paw oedema (according to Wong et al, J Pharmacol Exp, 1973:1855; pages 127-138). The products, suspended in 1% CMC, were administered orally in a total volume of 5 ml/rat. 1 h later, 0.1 ml of 1% carrageenin sterile solution was injected into the hind subplantar aponeurosis. Volume of the paw was measured immediately prior to injection of the phlogogen and 2 h thereafter, by means of a plethysmograph. The percentage of inhibition of oedema was calculated as follows: 1 - ΔV treated/ΔV control x 100 [formula] where ΔV = final V - initial V.

diuresis = assay: Diuresis in normally hydrated rats; assay type: in vivo; conditions: normally hydrated rats treated orally for 8 consecutive days (figure 13)
Protocol: In the course of various studies conducted on animals to show the lack of renal impairment, a test was carried out to compare the diuresis in normally hydrated rats treated orally for 8 consecutive days with amtolmeting guacyl and diclofenac, which is also a NSAID.

[2] = system: post-traumatic arthralgia; assay: Clinical trials: analgesic properties in post-traumatic arthralgia; assay type: in vivo, man; conditions: Amtolmetin guacyl 600mgx2-daily, Diclofenac 50mgx2-daily, 15 patients each
Excerpt: The same can be said in the treatment of post-traumatic arthralgia.

gastric mucosa = assay: Histological evaluation of the gastric mucosa by an independent laboratory; conditions: single animals; oral gavage: amtolmetin guacyl 50 mg/kg, diclofenac 7.5 mg/kg, tolmetin 66.6 mg/kg
Protocol: In order to obtain a histological evaluation of the results obtained in our laboratories, an independent laboratory was provided with identical samples of the material evaluated by us, under totally blind conditions.
Controls received the vehicle only, also by oral gavage. 4 h after the final administration the animals were killed by ether overdose and the stomachs removed, rinsed in saline and immersed in formalin 4%.

Adjuvant arthritis = assay: Adjuvant arthritis: joint inflammation and patellar bone erosion; assay type: in vivo, rats; conditions: patellar bone mass; MED 15 25, 50, 100mg/kg, piroxicam 3mg/kg
Protocol: The drugs were administered daily by oral gavage for 4 days (day 0-3); piroxicam and MED 15 were dissolved in 5% Gum arabic + 0.01% Tween 80, and administered in a volume of 0.5ml. Piroxicam was administered as 3mg/kg and MED 15 was administered as 25, 50 and 100mg/kg doses. Table 8 bis illustrating dosage regimes. L=left stifle joint, R=Right stifle joint.
Under halothane anaesthesia, rats received 200µg of heat-killed finely ground Mycobactyerium tubercolosis in 25µl (80mg/10ml sterile saline) injected intra-articulary into the left stifle joint. The contralateral joint received 25µl 0.9% sterile saline. Control animals received 25µl of 0.9% sterile saline in both knees. SGE 50µl microsyringes with a volume lock calibrated at 25µl were used with 30G stainless steel needles. Solutions were prepared sterile, and aseptic technique was used throughout, with sterilisation of syringes between groups.
The rats were killed by carbon dioxide suffocation. The body weight was noted and the skin overlying the stifle joints was divided and the joint diameters assessed in mm using Mitutoyo vernier callipers (530-312, 0.02mm).
The patellae were dissected, weighed (Sartorius, 0.01mg) and then immersed in 1ml digestion buffer (see below) to remove soft tissue.
Digestive buffer was prepared fresh to the following formula; disodium hydrogen orthophosphate 20mM, EDTA 1mM and diothiothreitol at 2mM. […]

[3] = system: isolated, perfused, immature rat stomach; assay: Antisecretive activity in vitro, isolated perfused immature rat stomach; conditions: agonist Histamine 10^-4 M, antagonist 10^-4 M
Excerpt: Male Wistar rats, 250±10 g b.w. (Charles River, Calco, Como, Italy), quarantined for five days prior to the beginning of the trial and divided into groups of 3 animals per cage, were used for determination of gastric lesions and of ID50 determination. Immature male Wistar rats, 30-45 g b.w. (Harlan Nossan, Milano) were used for the determination of the antisecretory effect on isolated rat stomach. The guinea-pigs used were the Dunkin Hartley guinea-pigs (Harlan Nossan, Milano, Italy).
At the beginning, the isolated, perfused, immature rat stomach, treated externally with the study product, was used. We preferred to use the isolated stomach in toto rather than strips (B.R. No. 18, 19 and 20) in order not to exclude a section of the stomach (the antrum), unimportant for acid secretion but very important for the secretion of bicarbonates and bioactive peptides (b.r. No. 21, 22). The results were encouraging, since amtolmetin guacyl inhibited acid production stimulated by the three classic agonists (histamine, acetilcholine and gastrin) both using varying doses of agonist or varying doses of amtolmetin guacyl (Table 5).
The results are expressed as mean±S.E.

**Q.** `O=C(O)Cc1ccccc1Nc1c(Cl)cccc1Cl` [Diclofenac sodium, diclofenac sodium] was tested. Which “further gastric findings (table footnotes)” value (rat gastric mucosa) did it give?
**A.** Each value is the mean of 6 rats. ^a)Diffuse haemorrhagic gastritis was also present

**Q.** And the “Ratio to rat dosage (mg/kg) (ID50 mg/kg x5)” value [1]?
**A.** 15.8 mg/kg

**Q.** What about the diuresis (diuresis) of the same compound?
**A.** clear decrease

**Q.** What about the “Duration” value [2] of the same compound?
**A.** 180 min

**Q.** And the “Latency” value [2]?
**A.** 20 min

**Q.** And the “Max. time effect” value [2]?
**A.** 60 min

**Q.** What about the Macroscopic findings (gastric mucosa) of the same compound?
**A.** 2 and 4 and 7

**Q.** And the Microscopic findings (gastric mucosa)?
**A.** 2* and 3* and 9*

**Q.** For `CN1C(C(=O)Nc2ccccn2)=C(O)c2ccccc2S1(=O)=O` [Piroxicam, piroxicam], which “Ratio to rat dosage (mg/kg) (ID50 mg/kg x5)” value [1] is on record?
**A.** 13.8 mg/kg

**Q.** What about the “protection against bone loss” value (Adjuvant arthritis) of the same compound?
**A.** greatest protection against bone loss

**Q.** For `Cc1ccc(C(=O)c2ccc(CC(=O)O)n2C)cc1` [Tolmetin, tolmetin], which Gastrolesive index (rat gastric mucosa) is on record?
**A.** 79.7

**Q.** What about the Macroscopic findings (gastric mucosa) of the same compound?
**A.** 3 and 0 (2×)

**Q.** What about the Microscopic findings (gastric mucosa) of the same compound?
**A.** 2+ and 0+ and 1+

**Q.** What does the source list for `CN/C(=N/CCSCc1nc[nH]c1C)NC#N` [Cimetidine, cimetidine, reference compound]?
**A.** % inhib. [3]: 78.6%; Δacid ([3]; mean±S.E.): 14.3 ± 7.2 nmol/min
